The target of experiment [1] is T1, full length recombinant Pim-1 protein (Homo sapiens, UniProt P11309).
T1 construct: by full length recombinant Pim-1, Pim-2, or Pim-3 protein; hexahistidine tag followed by a thrombin cleavage site (N); made in house; host or cells: Sf9 (baculovirus) or E. coli (pET28)
Description: Pim-1 enzyme assay (HTRF, phosphorylation of biotinylated-BAD (S112) peptide). The format is biochemical. The following applies: read-out: Pim_1_IC50. A digest of the protocol: (§1)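 HTRF read-out: Eu-labelled anti-phospho-BAD (S112) antibody plus streptavidin-APC detect phosphorylated biotin-BAD peptide. Enzymes were full-length recombinant human Pim-1 and Pim-2; buffer 60 mM Hepes pH 7.0, 0.05% BSA, 2 mM DTT; reactions quenched with 3 mM EDTA. Percent-of-control data fitted to a 4-parameter logistic for IC50.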

Experiment [2] addresses T2, Pim-1 stably transfected into the U2OS human osteogenic sarcoma line (Homo sapiens, UniProt P11309).
T2 construct: expressed in transfected cells; host or cells: U2OS human osteogenic sarcoma line
Description: Pim cell assay, phospho-BAD normalized against total BAD, U2OS stably transfected with Pim-1. Type of experiment: cell-based. In short, it runs like this:
(§2)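 Read-out is phospho-BAD relative to total BAD, by MSD electrochemiluminescence on lysates, expressed as % phosphoprotein = (2×phospho)/(phospho+total)×100. Engineered U2OS lines carrying stably transfected Pim-1 or Pim-2 received 10-point compound dilutions at 0.3% final DMSO after overnight culture at 37 °C; DMSO-only wells served as high control.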

In experiment [3] the target is T3, full length recombinant Pim-2 protein (Homo sapiens, UniProt Q9P1W9).
T3 construct: by full length recombinant Pim-1, Pim-2, or Pim-3 protein; hexahistidine tag followed by a thrombin cleavage site (N); made in house; host or cells: Sf9 (baculovirus) or E. coli (pET28)
Description: Pim-2 enzyme assay (HTRF, phosphorylation of biotinylated-BAD (S112) peptide). Type of experiment: biochemical. The following applies: read-out: Pim2_IC50. A digest of the protocol:
as §1

Experiment [4] addresses T4, Pim-2 stably transfected into the U2OS human osteogenic sarcoma line (Homo sapiens, UniProt Q9P1W9).
T4 construct: expressed in transfected cells; host or cells: U2OS human osteogenic sarcoma line
Description: Pim cell assay, phospho-BAD normalized against total BAD, U2OS stably transfected with Pim-2. The format is cell-based. A digest of the protocol: as §2

The mark [5] stands for this setting: U2OS cells stably transfected with Pim-1, phospho-BAD, high dose […], read-out: Pim1_Cell_IC50.
[6] abbreviates: U2OS cells stably transfected with Pim-2, phospho-BAD, high dose […], read-out: Pim2_Cell_IC50.
The mark [7] stands for this setting: U2OS stably transfected with Pim-1, phospho-BAD normalized against total BAD, 29 min incubation, read-out: Pim1_Cell_IC50_.
Setting [8] is: U2OS stably transfected with Pim-2, phospho-BAD normalized against total BAD, 29 min incubation, read-out: Pim2_Cell_IC50_.

The structures appear in SMILES notation. Read-outs that look alike come from different tables or passages of the source. A value given as a limit tells only on which side of the number the result lay.

T4 sequence (Q9P1W9 whole entry): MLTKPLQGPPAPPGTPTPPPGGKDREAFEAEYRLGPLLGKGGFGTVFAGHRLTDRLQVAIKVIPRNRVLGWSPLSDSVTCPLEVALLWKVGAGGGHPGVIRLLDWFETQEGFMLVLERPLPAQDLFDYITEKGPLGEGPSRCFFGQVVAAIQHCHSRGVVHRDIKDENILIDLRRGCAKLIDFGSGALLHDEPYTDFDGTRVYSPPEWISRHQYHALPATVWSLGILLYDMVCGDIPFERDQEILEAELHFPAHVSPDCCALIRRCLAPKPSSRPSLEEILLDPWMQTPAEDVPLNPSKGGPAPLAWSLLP
T3 sequence (Q9P1W9 whole entry): as above
T1 sequence (P11309 whole entry): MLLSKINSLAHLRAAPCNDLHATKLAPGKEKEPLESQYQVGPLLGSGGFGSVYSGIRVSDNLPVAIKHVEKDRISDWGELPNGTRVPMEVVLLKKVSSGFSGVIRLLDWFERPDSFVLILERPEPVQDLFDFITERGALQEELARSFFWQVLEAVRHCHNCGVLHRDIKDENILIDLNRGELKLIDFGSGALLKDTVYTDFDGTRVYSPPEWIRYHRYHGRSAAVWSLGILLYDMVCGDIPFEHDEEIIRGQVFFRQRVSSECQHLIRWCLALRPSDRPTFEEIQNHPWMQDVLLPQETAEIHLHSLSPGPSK
T2 sequence (P11309 whole entry): as above

With `NC1CCN(c2cncc(-c3n[nH]c4ccc(-c5cnc6[nH]ccc6c5)cc34)n2)CC1` [Example 57, 1-(6-(5-(1H-pyrrolo[2,3-b]pyridin-5-yl)-1H-indazol-3-yl)-2-pyrazinyl)-4-piperidinamine], the IC50 in experiment [1] (enzyme assay, Pim-1) is 1 nM; in experiment [2] (setting [5]), 605 nM; in experiment [3] (enzyme assay, Pim-2), 10 nM; in experiment [4] (setting [6]), greater than 31.6 µM.
For `CC(O)c1cccc(-c2ccc3[nH]nc(-c4cncc(O[C@@H]5CCCNC5)n4)c3c2)c1` (stereo partly drawn) [Example 367], the IC50 was 14 nM in experiment [1], 868 nM in experiment [2] (setting [7]), 27 nM in experiment [3] and 8.8 µM in experiment [4] (setting [8]).
On the same counts, the results for `COc1ccc(-c2ccc3[nH]cc(-c4cncc(O[C@@H]5CCCNC5)n4)c3c2)cc1` [Example 321] are 5 nM, 662 nM, 19 nM and 23.6 µM.
On the same counts, the results for `Oc1cc(N[C@@H]2CCCNC2)nc(-c2c[nH]c3ccc(-c4c(F)cccc4F)cc23)n1` [Example 515] are 3 nM, 12000 nM, 7 nM and greater than 31.6 µM.
With `CC(C)OC(=O)c1ccc2[nH]nc(-c3cncc(O[C@@H]4CCCNC4)n3)c2c1` [Example 477], the IC50 in experiment [1] came out at 8 nM; in experiment [2] (setting [7]) it was 348 nM; in experiment [3], 126 nM; in experiment [4] (setting [8]) it was 20.3 µM.
Regarding `OCc1ccc(-c2ccc3[nH]cc(-c4cncc(O[C@@H]5CCCNC5)n4)c3c2)cc1` [Example 316, (4-(3-(6-((3R)-3-piperidinyloxy)-2-pyrazinyl)-1H-indol-5-yl)phenyl)methanol], the IC50 in experiment [1] came to 2 nM; in experiment [2] (setting [7]), 103 nM; in experiment [3], 9 nM; in experiment [4] (setting [8]), 3.4 µM.
The like results for `FC(F)Oc1cccc(-c2ccc3[nH]cc(-c4cncc(O[C@@H]5CCCNC5)n4)c3c2)c1` [Example 344] were, in that order, 9 nM, 3610 nM, 68 nM and greater than 15.8 µM.
The like results for `c1cc2[nH]nc(-c3cncc(OC4CCNCC45CC5)n3)c2cc1-c1cncc(C2CC2)n1` (stereo not drawn) [Example 372] were, in that order, 1 nM, 200 nM, 7 nM and greater than 10 µM.
The like results for `NC1CCN(c2nc(O)cc(-c3n[nH]c4ccc(-c5c(F)cccc5F)cc34)n2)CC1` [Example 565] were, in that order, 1 nM, 1760 nM, 2 nM and 13.5 µM.
`c1cc2[nH]nc(-c3cncc(O[C@H]4CCNCC45CC5)n3)c2cc1-c1cncc(C2CC2)n1` [Example 374, 3-(6-((8S)-5-azaspiro[2.5]oct-8-yloxy)-2-pyrazinyl)-5-(6-cyclopropyl-2-pyrazinyl)-1H-indazole]: the IC50 in experiment [1] amounted to 1 nM; in experiment [2] (setting [7]) it was 312 nM; in experiment [3] it was 17 nM; in experiment [4] (setting [8]), 8.09 µM.
For the compound `NC1CCN(c2cncc(-c3n[nH]c4ccc(-c5cnc6[nH]nc(C(F)(F)F)c6c5)cc34)n2)CC1` [Example 6, 1-(6-(5-(3-(trifluoromethyl)-1H-pyrazolo[3,4-b]pyridin-5-yl)-1H-indazol-3-yl)pyrazin-2-yl)piperidin-4-amine], the IC50 is 1 nM in experiment [1] (enzyme assay, Pim-1); 1880 nM in experiment [2] (setting [5]); 35 nM in experiment [3] (enzyme assay, Pim-2); greater than 31.6 µM in experiment [4] (setting [6]).
With `c1cc(-c2ccc3[nH]nc(-c4cncc(O[C@@H]5CCCNC5)n4)c3c2)nc(NC2CC2)n1` [Example 242, N-cyclopropyl-4-(3-(6-((3R)-3-piperidinyloxy)-2-pyrazinyl)-1H-indazol-5-yl)-2-pyrimidinamine], the IC50 in experiment [1] worked out at 5 nM; in experiment [2] (setting [7]), 369 nM; in experiment [3], 108 nM; in experiment [4] (setting [8]) it was 31.5 µM.
On the same counts, the results for `COc1cncc(-c2n[nH]c3ccc(-c4cncc(C5CC5)n4)cc23)n1` [Example 379] are 2 nM, 657 nM, 16 nM and greater than 31.6 µM.
As for `O=C(Nc1ccc(-c2ccc3[nH]cc(-c4cncc(O[C@@H]5CCCNC5)n4)c3c2)cc1)C1CC1` [Example 311], the IC50 in experiment [1] is 8 nM; in experiment [2] (setting [7]), 412 nM; in experiment [3], 25 nM; in experiment [4] (setting [8]), greater than 31.6 µM.
`COC(=O)c1ccc2[nH]nc(-c3cncc(N4CCC(N)CC4)n3)c2c1` [Example 558, methyl 3-(6-(4-amino-1-piperidinyl)-2-pyrazinyl)-1H-indazole-5-carboxylate]: the IC50 in experiment [1] was determined as 2 nM; in experiment [2] (setting [7]), 156 nM; in experiment [3] it was 8 nM; in experiment [4] (setting [8]) it was 3.8 µM.
As for `CC(C)Oc1cccc(-c2ccc3[nH]cc(-c4cncc(O[C@@H]5CCCNC5)n4)c3c2)c1` [Example 360], the IC50 in experiment [1] is 8 nM; in experiment [2] (setting [7]) it was 2720 nM; in experiment [3], 94 nM; in experiment [4] (setting [8]), greater than 15.8 µM.
As to `CC(C)OC(=O)c1ccc2[nH]nc(-c3cncc(N[C@@H]4CCCNC4)n3)c2c1` [Example 474, 1-methylethyl 3-(6-((3R)-3-piperidinylamino)-2-pyrazinyl)-1H-indazole-5-carboxylate], the IC50 in experiment [1] was found to be 2 nM; in experiment [2] (setting [7]), 108 nM; in experiment [3] it was 52 nM; in experiment [4] (setting [8]), 14.6 µM.
The like results for `c1cc(-c2ccc3[nH]cc(-c4cncc(O[C@@H]5CCCNC5)n4)c3c2)nc(N2CCNCC2)c1` [Example 299] were, in that order, 3 nM, 1270 nM, 231 nM and greater than 31.6 µM.
The like results for `OCc1cccc(-c2ccc3[nH]cc(-c4cncc(O[C@@H]5CCCNC5)n4)c3c2)c1` [Example 315] were, in that order, 7 nM, 444 nM, 24 nM and 9.06 µM.
As to `Cc1ccccc1-c1ccc2[nH]nc(-c3cncc(O[C@H]4CNCCC45CC5)n3)c2c1` [Example 404], the IC50 is 9 nM in experiment [1], 2580 nM in experiment [2] (setting [7]), 19 nM in experiment [3] and greater than 15.8 µM in experiment [4] (setting [8]).
On to `NC1CCN(c2cc(O)nc(-c3c[nH]c4ccc(-c5c(F)cccc5F)cc34)n2)CC1` [Example 566], for which the IC50 was 4 nM in experiment [1], 5590 nM in experiment [2] (setting [7]), 23 nM in experiment [3] and greater than 31.6 µM in experiment [4] (setting [8]).
On the same counts, the results for `COc1ccc(-c2ccc3[nH]cc(-c4cncc(O[C@@H]5CCCNC5)n4)c3c2)cc1F` [Example 292] are 4 nM, 649 nM, 19 nM and no less than 35.2 µM.
`COc1cncc(-c2ccc3[nH]nc(-c4cncc(N5CCC(N)CC5)n4)c3c2)c1` [Example 79, 1-(6-(5-(5-methoxy-3-pyridinyl)-1H-indazol-3-yl)-2-pyrazinyl)-4-piperidinamine]: the IC50 in experiment [1] (enzyme assay, Pim-1) is 1 nM; in experiment [2] (setting [5]), 182 nM; in experiment [3] (enzyme assay, Pim-2), 9 nM; in experiment [4] (setting [6]), 3.89 µM.
With `CC(C)(O)CNc1cncc(-c2n[nH]c3ccc(-c4cncc(C5CC5)n4)cc23)n1` [Example 392], the IC50 in experiment [1] was 13 nM; in experiment [2] (setting [7]), 212 nM; in experiment [3], 66 nM; in experiment [4] (setting [8]), greater than 10 µM.

For the origin of these results see US9090593B2, “Bicyclic compounds as Pim inhibitors” (AMGEN INC., priority 2010, dated 2015).
